For assay [1], the system named is rabbit platelet aggregation caused by PAF. As to the kind of experiment: Inhibition of PAF-induced platelet aggregation in vitro test. Format: cell-based, rabbit (Japanese white crossbred male). The note with it: rabbit PRP; for Specific activity relative to the activity of the compound of Example 1: inhibition of PAF-induced aggregation, compound of Example 1 = 1. How it is done: The inhibition of PAF-induced platelet aggregation was examined by use of a platelet-rich plasma [PRP] of a rabbit according to the method of Mustard et al. [J. F. Mustard et al., J. Lab. Clin. Med., 64, 548 (1964)], which is an improved version of the method of Born [G. V. R. Born, J. Physiol., London, 162, 67 (1962)]. Thus, 80 to 100 ml of blood per animal was collected from the carotid artery of a Japanese white crossbred male rabbit without anesthesia into a polyethylene vessel in which 1/10 the volume of a 3.8% sodium citrate solution had been placed beforehand. A portion (about 3 ml) of the blood thus collected was subjected to high speed centrifugation (11,000 rpm, 60 seconds) to obtain a platelet-poor plasma (PPP) as supernatant. The remainder of the blood was subjected to low speed centrifugation (1,000 rpm, 10 minutes) to obtain a platelet-richplasma (PRP) as supernatant.
The platelet aggregation was evaluated by nephelometry, the determination being made with PRP stirred at 1,000 rpm at 37° C. by use of an aggregater (Hematracer, Niko Bioscience Co.). The platelet aggregation activity was expressed in terms of the percent of light transmission, that of PRP being taken as 0% and that of PPP being taken as 100%. A 0.2 ml portion of PRP was placed in a glass cuvette containing a silicone-treatediron stirring rod, and 2 μl of dimethyl sulfoxide was added thereto. After 2 minutes, a PAF solution in 0.25% BSA physiological saline was added thereto to give a final concentration of PAF of […] and the maximum aggregation was determined. To examine the inhibitory activity of test compounds for the platelet aggregation caused by PAF, 2 μl of a test compound dissolved in dimethyl sulfoxide was added in place of dimethyl sulfoxide described above. The PAF inhibitory rate of a test compound was calculated according to the following equation: [formula]

The test system of assay [2] is platelet aggregation caused by PAF. The assay can be described thus: Inhibition of platelet aggregation, outside-living-body test (rabbit, intravenous). Format: in vivo. Conditions: Oryctolagus cuniculus, EC50 is of PAF, higher = more inhibition, read-out: EC50 value (PAF concentration necessary for causing an aggregation corresponding to 50% of the maximum PAF reaction). How it is done: (§1) The test compound was intravenously administered (30 mg/kg) to a rabbit or orally administered (50 mg/kg) to a guinea pig. Blood samples were collected, and the extent of platelet aggregation caused by 10^-12 -10^-6 M of PAF was examined. The numerical values in the Table show the PAF concentrations (EC50 nM) necessary for causing an aggregation corresponding to 50% of the maximum PAF reaction.

Assay [3] has the same test system. As to the kind of experiment: Inhibition of platelet aggregation, outside-living-body test (guinea pig, oral). It counts as in vivo. The note with it: Cavia porcellus, EC50 is of PAF, higher = more inhibition, read-out: EC50 value (PAF concentration necessary for causing an aggregation corresponding to 50% of the maximum PAF reaction). How it is done: as §1

Converted amounts (≈) assume the structure as drawn. Where two headings read alike, the source gives them in different places.

In the case of `CN1C(=O)C(c2ccc(F)cc2)SC1c1cccnc1` (stereo not shown) [Example 4], the “Specific activity relative to the activity of the compound of Example 1” value in assay [1] came to 1.3.

Turning to `CN1C(=O)C(c2ccccc2)SC1c1cccnc1` (stereo not shown) [Example 14], in assay [1], the “Specific activity relative to the activity of the compound of Example 1” value is on record as 1.4.

As for `C=CCN1C(=O)C(c2ccc(Cl)cc2)SC1c1cccnc1` (single isomer, unassigned) [Example 17], the “Specific activity relative to the activity of the compound of Example 1” value in assay [1] was found to be 1.0.

As for `O=C1C(c2ccc(Cl)cc2)SC(c2cccnc2)N1CCCO` (stereo not shown) [Example 27], the “Specific activity relative to the activity of the compound of Example 1” value in assay [1] was found to be 0.6.

Take `CN1C(=O)C(c2c(Cl)cccc2Cl)SC1c1cccnc1` (stereo not shown) [Example 13]: the “Specific activity relative to the activity of the compound of Example 1” value in assay [1] amounted to 2.3.

Take `CCN1C(=O)C(c2ccc(Cl)cc2)SC1c1cccnc1` (stereo not shown) [Example 15]: the “Specific activity relative to the activity of the compound of Example 1” value in assay [1] is recorded as 0.5.

Regarding `COc1ccc(C2SC(c3cccnc3)N(C)C2=O)cc1OC` (stereo not shown) [Example 11], the “Specific activity relative to the activity of the compound of Example 1” value in assay [1] is 0.7.

As to `CN1C(=O)C(c2cccc3ccccc23)SC1c1cccnc1` (stereo not shown) [Example 5], in assay [1], the “Specific activity relative to the activity of the compound of Example 1” value came to 0.9.

As for `C#CCN1C(=O)C(c2ccc(Cl)cc2)SC1c1cccnc1` (single isomer, unassigned) [Example 19], the “Specific activity relative to the activity of the compound of Example 1” value in assay [1] came out at 1.2.

Take `CC(=O)OCCN1C(=O)C(c2ccc(Cl)cc2)SC1c1cccnc1` (single isomer, unassigned) [Example 32]: in assay [1], the “Specific activity relative to the activity of the compound of Example 1” value worked out at 1.8.

Turning to `COc1ccc(CCN2C(=O)C(c3ccc(Cl)cc3)SC2c2cccnc2)cc1OC` (single isomer, unassigned) [Example 21], in assay [1], the “Specific activity relative to the activity of the compound of Example 1” value was 2.2.

Turning to `CN1C(=O)C(c2ccc(Cl)cc2)SC1c1cccnc1` (stereo not shown) [Example 1, 5-(4-chlorophenyl)-3-methyl-2-(3-pyridyl)thiazolidin-4-one], half-maximal inhibition in assay [1] (Oryctolagus cuniculus, Platelet, PAF-induced aggregation) (IC50) was put at 5 µg/mL (≈ 16.4 µM). The EC50 at 30 mg/kg in assay [2] (0 hr after administration) worked out at 6.2 nM; in assay [2] (0.5 hr after administration) it was 26 nM; in assay [2] (1 hr after administration), 20 nM; in assay [2] (2 hr after administration), 16 nM; in assay [2] (4 hr after administration), 14 nM. For the same molecule, the EC50 at 50 mg/kg in assay [3] (0 hr after administration) worked out at 0.23 nM; in assay [3] (0.5 hr after administration), 10 nM; in assay [3] (1 hr after administration), 17 nM; in assay [3] (2 hr after administration) it was 3 nM; in assay [3] (4 hr after administration), 1 nM.

Broadly, the IC50 is the concentration needed to halve the response being measured.

The values above are taken from US4849434A, “Novel thiazolidin-4-one derivatives and acid addition salts therof” (Sumitomo Pharmaceuticals Company, Limited, priority 1986, dated 1989).
